This note sets out measurements from patent US20250228865A1, “COMPOUNDS FOR ENHANCING READ THROUGH OF GENES CONTAINING PREMATURE TERMINATION CODONS AND METHODS FOR MAKING AND USING THE SAME” (Sanofi US Services Inc., priority 2022, published 2025).

Experiment [1] relates to recombinant human CFTR carrying the premature stop codon (PTC) mutation G542X. The experiment in a line: CFTR-PTC mutant translation readthrough, Nanoluc tagged CFTR luminescence (G542X cell line). Type of experiment: cell-based. To be noted: in combination with G418, G542X cell line; for CFTR G542X ACTIVITY Fold 10 μM G-418: fold over 10 μM G-418; for EC50: 16HBE cells. The essentials: (§1)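 16HBE cells stably expressing Nanoluc-tagged human CFTR with G542X or R1162X, in medium with 3 μM VX-809, treated 48 h at 37 °C with compound (10-point, 2-fold, top 50 μM final) alone or with 10 μM G418. Live-cell Nanoluc luminescence normalised to a maximally effective G418 (125-250 μM).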

Experiment [2] has as its system recombinant human CFTR carrying the premature stop codon (PTC) mutation R1162X. In words: CFTR-PTC mutant translation readthrough, Nanoluc tagged CFTR luminescence (R1162X cell line). Type of experiment: cell-based. To be noted: for CFTR R1162X ACTIVITY Fold 10 μM G-418: fold over 10 μM G-418, in combination with G418; for EC50: in combination with G418, 16HBE cells, read-out: CFTR R1162X ACTIVITY EC50. The essentials:
as §1

`Cc1cccc(C(F)(F)F)c1COc1cnc(-n2cnc(CO)n2)nc1`: in experiment [1], the “CFTR G542X ACTIVITY Fold 10 μM G-418” value was “A′ (A′ = ≥10X)” and the EC50 (commonly the concentration giving half of the maximal effect) is less than 1 µM. Further, in experiment [2], the “CFTR R1162X ACTIVITY Fold 10 μM G-418” value is recorded as “A′ (A′ = ≥10X)” and the half-maximal effective concentration (EC50) was in the range of 1 to 10 µM.
As for `OCc1ncn(-c2ccc(OCc3c(Cl)cccc3C(F)(F)F)cn2)n1`, in experiment [1], the “CFTR G542X ACTIVITY Fold 10 μM G-418” value is reported as “A′ (A′ = ≥10X)” and the EC50 is less than 1 µM. Also, in experiment [2], the “CFTR R1162X ACTIVITY Fold 10 μM G-418” value is recorded as “A′ (A′ = ≥10X)” and the EC50 was less than 1 µM.
As for `CCc1cccc(C(F)(F)F)c1COc1cnc(-n2ccc(CO)n2)nc1`, in experiment [1], the “CFTR G542X ACTIVITY Fold 10 μM G-418” value is “A′ (A′ = ≥10X)” and the concentration for a half-maximal effect (EC50) was less than 1 µM. In experiment [2], the “CFTR R1162X ACTIVITY Fold 10 μM G-418” value is “A′ (A′ = ≥10X)” and the EC50 is less than 1 µM.
On to `OCC1CN(c2ccc(OCc3c(Cl)cccc3C(F)(F)F)cn2)CCO1` (stereo not shown), for which, in experiment [1], the “CFTR G542X ACTIVITY Fold 10 μM G-418” value is on record as “A′ (A′ = ≥10X)” and the EC50 was less than 1 µM. In experiment [2], the “CFTR R1162X ACTIVITY Fold 10 μM G-418” value is on record as “A′ (A′ = ≥10X)” and the EC50 was less than 1 µM.
`COC(=O)C1CN(c2ncc(OCc3c(Cl)cccc3Cl)cn2)CC(=O)N1` (stereo not shown): in experiment [1], the “CFTR G542X ACTIVITY Fold 10 μM G-418” value is listed as “A′ (A′ = ≥10X)” and the concentration for a half-maximal effect (EC50) is more than 10 µM. Further, in experiment [2], the “CFTR R1162X ACTIVITY Fold 10 μM G-418” value is on record as “B′ (B′ = ≥5X to <10X)” and the EC50 was more than 10 µM.
In the case of `O=C1N[C@@H](CO)CN1c1ncc(OCc2c(Cl)cccc2C(F)(F)F)cn1` [(4R)-1-(5-{[2-chloro-6-(trifluoromethyl)phenyl]methoxy}pyrimidin-2-yl)-4-(hydroxymethyl)imidazolidin-2-one], in experiment [1], the “CFTR G542X ACTIVITY Fold 10 μM G-418” value is on record as “C′ (C′ = <5X)” and the concentration for a half-maximal effect (EC50) fell in the range of 1 to 10 µM. Further, in experiment [2], the “CFTR R1162X ACTIVITY Fold 10 μM G-418” value is reported as “C′ (C′ = <5X)” and the EC50 lay in the range of 1 to 10 µM.
In the case of `O=C1CN(Cc2ccccc2)C(=O)N1c1ncc(OCc2ccccc2)cn1` [1-benzyl-3-(5-benzyloxypyrimidin-2-yl)imidazolidine-2,4-dione], in experiment [1], the “CFTR G542X ACTIVITY Fold 10 μM G-418” value is “A′ (A′ = ≥10X)” and the EC50 is less than 1 µM. For the same compound, in experiment [2], the “CFTR R1162X ACTIVITY Fold 10 μM G-418” value is “A′ (A′ = ≥10X)” and the EC50 was 1 to 10 µM.
As to `OC[C@H]1CN(c2ncc(OCc3c(Cl)cccc3Cl)cn2)C[C@@H](C(F)(F)F)O1` (racemic), in experiment [1], the “CFTR G542X ACTIVITY Fold 10 μM G-418” value was “A′ (A′ = ≥10X)” and the EC50 fell in the range of 1 to 10 µM. Also, in experiment [2], the “CFTR R1162X ACTIVITY Fold 10 μM G-418” value is on record as “A′ (A′ = ≥10X)” and the EC50 was in the range of 1 to 10 µM.
With `Clc1cccc(Cl)c1COc1cnc(-n2cc(-c3ccccn3)nn2)nc1` [5-[(2,6-dichlorophenyl)methoxy]-2-[4-(2-pyridyl)triazol-1-yl]pyrimidine], in experiment [1], the “CFTR G542X ACTIVITY Fold 10 μM G-418” value is recorded as “A′ (A′ = ≥10X)” and the EC50 is less than 1 µM. Moreover, in experiment [2], the “CFTR R1162X ACTIVITY Fold 10 μM G-418” value is given as “A′ (A′ = ≥10X)” and the half-maximal effective concentration (EC50) was less than 1 µM.
Take `Cc1cccc(C(F)(F)F)c1COc1cnc(-n2ccc(CO)n2)nc1`: in experiment [1], the “CFTR G542X ACTIVITY Fold 10 μM G-418” value is given as “A′ (A′ = ≥10X)” and the half-maximal effective concentration (EC50) was less than 1 µM. Also, in experiment [2], the “CFTR R1162X ACTIVITY Fold 10 μM G-418” value is reported as “A′ (A′ = ≥10X)” and the EC50 was less than 1 µM.
Take `FC(F)(F)c1cccc(Cl)c1COc1cnc(N2CCCC3(CCNC3)C2)nc1` (stereo not shown): in experiment [1], the “CFTR G542X ACTIVITY Fold 10 μM G-418” value is “B′ (B′ = ≥5X to <10X)” and the concentration giving a half-maximal response (EC50) lay within 1 to 10 µM. Moreover, in experiment [2], the “CFTR R1162X ACTIVITY Fold 10 μM G-418” value is “B′ (B′ = ≥5X to <10X)” and the EC50 lay within 1 to 10 µM.
As for `NC(=O)N1CCN(c2ncc(OCc3c(Cl)cccc3Cl)cn2)CC1CO` (stereo not shown), in experiment [1], the “CFTR G542X ACTIVITY Fold 10 μM G-418” value is on record as “A′ (A′ = ≥10X)” and the EC50 is less than 1 µM. Also, in experiment [2], the “CFTR R1162X ACTIVITY Fold 10 μM G-418” value was “A′ (A′ = ≥10X)” and the EC50 was less than 1 µM.
Take `NC(=O)c1ccn(-c2ncc(OCc3c(Cl)cccc3C(F)(F)F)cn2)n1`: in experiment [1], the “CFTR G542X ACTIVITY Fold 10 μM G-418” value is given as “A′ (A′ = ≥10X)” and the EC50 was less than 1 µM. In experiment [2], the “CFTR R1162X ACTIVITY Fold 10 μM G-418” value is listed as “A′ (A′ = ≥10X)” and the EC50 is less than 1 µM.
